Measured values taken from US20260263424A1, “Formulations of 2-Arylbenzimidazole Compounds” (Tranquis Therapeutics, Inc., priority 2022, published 2026).
Read-outs that look alike come from different tables or passages of the source. Values belong to the molecule of their own block, whether it stands above or below them.

Columns and labels:
[1] = WO 2021/262617; cited from earlier work
[2] = cited from earlier work
[3] = Single ascending dose (SAD) phase 1 trial, plasma pharmacokinetics of MC, SDD and HME formulations; conditions: for Frel Cmax/D (relative bioavailability, geometric mean): dose normalized comparison to Regimen C: 540 mg compound 1 MC formulation; for AUC(0-last) (geometric mean): fasted, plasma
[4] = system: murine models of neurodegenerative diseases, including Parkinson's disease, Alzheimer's disease, and amyotrophic lateral sclerosis (ALS); conditions: administered orally at 25 mg/kg; cited from earlier work
[5] = Multiple dose phase 1 trial, plasma pharmacokinetics of compound 1 SDD formulation QD for 7 days; conditions: for AR AUC (accumulation ratio based on AUC(0-tau)) / AR Cmax (accumulation ratio): Day 7, plasma
[6] = system: Ppargc1α (PGC-1α) expression; conditions: Zhang et al., Diabetes 62:1297-1307 (2013); cited from earlier work
[7] = male, human, in vivo, 120 mg, 7 days
[8] = human, in vivo
[9] = Regimen I: 120 mg compound 1 SDD formulation QD, fasted
[10] = Regimen J: 90 mg compound 1 SDD formulation QD, fed
[11] = Regimen K: 300 mg compound 1 SDD formulation QD, fed

Compound: CC(C)(C)c1ccc(-c2nc3ccccc3[nH]2)cc1 [Compound 1, 2-(4-tert-butylphenyl)-1H-benzimidazole]
treating systemic immune activation [1]: effective | solubility under aqueous conditions [2]: highly insoluble | dose proportionality of Cmax, AUC(0-24) and AUC(0-inf) ([3]; MC formulation, single doses of 60 and 180 mg compound 1): slightly sub-proportionally | Frel Cmax/D (relative bioavailability, geometric mean) ([3]; Regimen D 180 mg compound 1 SDD formulation): 218% | AUC(0-last) (geometric mean) ([3]; Regimen D: single oral 180 mg compound 1 SDD formulation): 611 ng·h/mL | Frel Cmax (relative bioavailability, geometric mean) ([3]; Regimen E 180 mg compound 1 HME formulation, comparison to Regimen D 180 mg compound 1 SDD formulation): 56.6% | Frel Cmax/D (relative bioavailability, geometric mean) ([3]; Regimen E 180 mg compound 1 HME formulation): 124% | AUC(0-last) (geometric mean) ([3]; Regimen E: single oral 180 mg compound 1 HME formulation): 360 ng·h/mL | disease severity [4]: reduce disease severity | myeloid-mediated inflammation [4]: suppress myeloid-mediated inflammation | AR AUC (accumulation ratio based on AUC(0-tau)) [5, 9]: 1.58 | AR Cmax (accumulation ratio) [5, 9]: 1.59 | AR AUC (accumulation ratio based on AUC(0-tau)) [5, 10]: 1.24 | AR Cmax (accumulation ratio) [5, 10]: 1.03 | maximum individual AUC(0-tau) as share of the AUC(0-tau) exposure limit ([5]; Regimen J: 90 mg compound 1 SDD formulation, fed, Day 1): 10.9% | AR AUC (accumulation ratio based on AUC(0-tau)) [5, 11]: 1.66 | AR Cmax (accumulation ratio) [5, 11]: 1.74 | effect on Ppargc1α (PGC-1α) expression [6]: activator

AR AUC (accumulation ratio based on AUC(0-tau)) [7]: 1.46 | dose proportionality of Cmax, AUC(0-24) and AUC(0-inf) ([8]; 180 mg): proportionally | Frel Cmax (relative bioavailability, geometric mean) ([8]; male, 180 mg): 64.9% | T1/2 (geometric mean) ([8]; male, po, 180 mg): 9.17 h | Tmax (median) ([8]; male, po, 180 mg): 2 h | Cmax (geometric mean) ([8]; male, po, 270 mg): 621 ng/mL | Tmax (median) ([8]; male, po, 270 mg): 2 h
Compound: CC(C)(C)c1ccc(-c2nc3cc(O)ccc3[nH]2)cc1 [Compound 2, 2-(4-(tert-butyl)phenyl)-1H-benzo[d]imidazol-5-ol]
